IC50 data for five compounds are collected here from patent publication US20160193206A1, “BET-PROTEIN-INHIBITING DIHYDROPYRIDOPYRAZINONES” (BAYER PHARMA AKTIENGESELLSCHAFT, priority 2012, published 2016).

pIC50: −log10 of the molar value.

Test [1] addresses T1, BRD4 bromo domain 2 [BRD4(2)] (Homo sapiens, UniProt O60885).
T1 construct: N-terminally His6-tagged BRD4(2) (amino acids 357-445); made in house; host or cells: E. coli
In words: BRD4(2)/acetylated peptide H4 binding assay (TR-FRET). Conditions: inhibition of interaction between His6-tagged BRD4(2) (amino acids 357-445) and acetylated histone H4 peptide. The method in brief:
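Compounds (0.1 nM to 20 μM, 11 points, duplicates) preincubated 10 min at 22 °C with 100 nM His6-tagged BRD4(2) residues 357-445, then Ac-H4-biotin peptide added; incubated 1 h at 22 °C and 3 h-overnight at 4 °C. Eu/XL665 emission ratio normalised to DMSO and no-protein controls; 4-parameter IC50.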
(In general: In TR-FRET formats the signal depends on donor and acceptor labels being close together.)

Test [2] deals with T2, BRD4 bromo domain 1 [BRD4(1)] (Homo sapiens, UniProt O60885).
T2 construct: N-terminally His6-tagged BRD4(1) (amino acids 67-152); made in house; host or cells: E. coli
Nature of the test: BRD4(1)/acetylated peptide H4 binding assay (TR-FRET). As to conditions: inhibition of interaction between His6-tagged BRD4(1) (amino acids 67-152) and acetylated histone H4 peptide. The method in brief: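 IC50 came from a 4-parameter fit of the 665/620 nm emission ratio, normalised to DMSO and no-protein controls. His6-tagged BRD4(1) residues 67-152 (typically 10 nM final) was preincubated 10 min with compound (0.1 nM to 20 μM, duplicates), then exposed to Ac-H4-biotin peptide at 22 °C for 1 h and 4 °C for at least 3 h.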

Another test has as its system MOLM-13 cell line. Nature of the test: MOLM-13 cell proliferation assay (alamarBlue). It is filed as cell-based. As to conditions: Homo sapiens, inhibition of proliferation of MOLM-13 cells (acute myeloid leukaemia), 96 hours incubation. The method in brief:
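MOLM-13 (human AML) cells were treated with compound dilutions for 96 h at 37 °C after overnight plating, and viability was read by alamarBlue fluorescence (ex 530/em 590 nm). Pre-treatment readings were subtracted from end-point readings, and IC50 was calculated relative to buffer-only controls.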

The term pIC50 denotes −log10 of the IC50, conventionally taken in molar units.

Turning to `COc1cc(C(=O)NCCN2CCN(C)CC2)ccc1Nc1ccc2c(n1)N(C1CCCCCC1)[C@H](C)C(=O)N2C` [Example 91, 4-{[(3R)-4-Cycloheptyl-1,3-dimethyl-2-oxo-1,2,3,4-tetrahydropyrido[2,3-b]pyrazin-6-yl]amino}-3-methoxy-N-[2-(4-methylpiperazin-1-yl)ethyl]benzamide], the pIC50 in test [1] was 6.87; in test [2], 6.81; in the test on MOLM-13 cell line it was 6.45.
On to `COc1cc(C(=O)N2CC3(CCS3(=O)=O)C2)ccc1Nc1ccc2c(n1)N(C(C)C)[C@H](C)C(=O)N2C` [Example 8, (3R)-6-({4-[(1,1-Dioxido-1-thia-6-azaspiro[3.3]hept-6-yl)carbonyl]-2-methoxyphenyl}amino)-4-isopropyl-1,3-dimethyl-3,4-dihydropyrido[2,3-b]pyrazin-2(1H)-one], for which the pIC50 in test [1] was 7.08; in test [2], 6.85; in the test with MOLM-13 cell line it was 6.44.
In the same order, the values of `COc1cc(C(=O)N2CC3(COC3)C2)ccc1Nc1ccc2c(n1)N(Cc1ccccc1)[C@H](C)C(=O)N2C` [Example 83, (3R)-4-Benzyl-6-{[2-methoxy-4-(2-oxa-6-azaspiro[3.3]hept-6-ylcarbonyl)phenyl]amino}-1,3-dimethyl-3,4-dihydropyrido[2,3-b]pyrazin-2(1H)-one] are 7.21, 6.88 and 6.91.
On to `C[C@@H]1C(=O)N(C)c2ccc(Nc3ccc(S(=O)(=O)NCCN(C)C)cc3)nc2N1C1CCOCC1` [Example 24, N-[2-(dimethylamino)ethyl]-4-{[(3R)-1,3-dimethyl-2-oxo-4-(tetrahydro-2H-pyran-4-yl)-1,2,3,4-tetrahydropyrido[2,3-b]pyrazin-6-yl]amino}benzene-sulphonamide], for which the pIC50 in test [1] is 7.12; in test [2] it was 7.09; with MOLM-13 cell line, 6.26.
Take `C[C@@H]1C(=O)N(C)c2ccc(Nc3ccc(C(=O)NCCN4CCN(C)CC4)cc3)nc2N1C1CCCCC1` [Example 66, 4-{[(3R)-4-Cyclohexyl-1,3-dimethyl-2-oxo-1,2,3,4-tetrahydropyrido[2,3-b]pyrazin-6-yl]amino}-N-[2-(4-methylpiperazin-1-yl)ethyl]benzamide]: the pIC50 in test [1] is 6.81; in test [2] it was 6.85; in the test on MOLM-13 cell line, 6.57.
